According to PMC4926073, “Absorption and Transport of Sea Cucumber Saponins from Apostichopus japonicus” (Marine Drugs, 2016):
Where two headings read alike, the source gives them in different places.

Columns and labels:
in vitro = conditions: human; for recovery: Caco-2, Recovery (AP + BL chambers + cell monolayer)
[1] = Single-pass intestinal perfusion in rats; conditions: for concentration-dependent changes in permeability: 1, 5, 25 μg/mL
Experimental: (§1) Data were expressed as the means ± SD of three determinations: Peff = −Q ln [Cout/Cin]/2πrl(2)
(§2) In which Cin is the inlet concentration and Cout is the outlet concentration of compound, which is corrected for volume change in the segment using phenol red concentration in the inlet and outlet tubing. Q is the flow rate (0.2 mL/min), r is the rat intestinal radius (0.18 cm), and l is the length of the segment [32].
(§3) The rats were anaesthetized with an intra-abdominal injection of 10% chloral hydrate at a dose of 5 mL/kg. The enterocoelia of the rat was dissected by a 3–4 cm midline length, a segment of intestine about 10 cm long was separated and washed with saline. Silicone tubing was inserted into both sides of the segment of intestine and a peristaltic pump was connected to the proximal side of the tube. A pledget with saline was added onto the surgical area to avoid loss of fluid. The segment was cleared with 37 °C saline firstly, then blank K-R buffer solution was infused at the inlet and blank perfusate was collected at the outlet. The segment was infused with perfusate containing phenol red and different concentrations of sea cucumber saponins (1, 5, and 25 μg/mL) at a flow rate of 2 mL/min. Then the rate was reduced to 0.2 mL/min for 30 min until steady-state. Samples were obtained from the outlet of the segment every 15 min and stored at −20 °C for analysis. Different concentrations of sea cucumber saponins were perfused to highlight the absorption mechanism of sea cucumber saponins, which were investigated by the concentration-dependent change of the permeability values. 400 μg/mL verapamil was added to the perfusion solution containing 5 μg/mL sea cucumber saponins and 20 μg/mL phenol red to investigate whether the intestinal absorption of sea cucumber saponins were affected by P-gp.

Caco-2 cell monolayer [2] = conditions: human
[3] = Freeze-thaw, short-term and long-term stability in rat plasma; conditions: for Short-Term Stability, Accuracy (%): ambient temperature 24 h; for Long-Term Stability, Accuracy (%): ambient temperature 5 d
in vivo [4] = conditions: male, Wistar, rat, iv, 20 mg/kg
[5] = In vivo pharmacokinetics in rats after oral administration; conditions: 20 mg/kg
[6] = Freeze-thaw, short-term and long-term stability in perfusate (Krebs-Ringer buffer solution); conditions: for Short-Term Stability, Accuracy (%): ambient temperature 24 h; for Long-Term Stability, Accuracy (%): ambient temperature 5 d
Caco-2 cell monolayer [7] = assay: Transepithelial transport across Caco-2 cell monolayer
[8] = rat, in vivo, 20 mg/kg
[9] = rat
in vivo [10] = conditions: rat
Experimental: as §1, §2, §3

[11] = rat; remark: listed apart in the source
Experimental: as §1, §2, §3

[12] = nominal conc. 100.00 ng/mL, frozen at −20 °C 24 h, thawed at ambient temperature
[13] = range over freeze-thaw, short-term, long-term and both compounds

With `CO[C@@H]1[C@@H](O)[C@H](O[C@@H]2[C@@H](O)[C@H](O[C@H]3[C@H](O)[C@@H](O)[C@H](O[C@H]4[C@H](O[C@H]5CC[C@]6(C)C7=C[C@H](O)[C@]89C(=O)O[C@@](C)(CCCC(C)C)[C@@]8(O)CC[C@@]9(C)C7CCC6C5(C)C)OC[C@@H](OS(=O)(=O)O)[C@@H]4O)O[C@@H]3C)O[C@H](CO)[C@H]2O)O[C@H](CO)[C@H]1O` (stereo partly shown) [Echinoside A] the Papp A→B (in vitro; Caco-2) was 3.96 ± 0.55 ×10⁻⁶ cm/s, the Papp B→A (in vitro; Caco-2) was 5.38 ± 0.81 ×10⁻⁶ cm/s and the recovery (in vitro; time 60 min) was 97.4 ± 2.76%. The recovery (in vitro; time 90 min) was 98.2 ± 1.97%, the recovery (in vitro; time 120 min) was 96.6 ± 2.33% and the recovery (in vitro; time 150 min) was 96.5 ± 2.04%. The “concentration-dependent changes in permeability” value ([1]; rat single-pass intestinal perfusion) was “not found”, the “change in permeability when verapamil was added to the perfusate” value ([1]; rat single-pass intestinal perfusion, verapamil 400 μg/mL) was “No significant increase” and the Papp ([1]; rat, other: single-pass intestinal perfusion) was 25 ×10⁻⁶ cm/s. For the same molecule, the “Papp AP-BL” value (Caco-2 cell monolayer [2]) was 4.04 ± 0.39 × 10^−6, cm·s^−1, the “Papp BL-AP” value (Caco-2 cell monolayer [2]) was 5.33 ± 0.70 × 10^−6, cm·s^−1 and the “Short-Term Stability, Accuracy (%)” value ([3]; nominal conc. 100.00 ng/mL) was 95.4%. The “Long-Term Stability, Accuracy (%)” value ([3]; nominal conc. 100.00 ng/mL) was 97.2%, the “Freeze-Thaw Stability, Accuracy (%)” value [3, 12] was 94.4% and the “Freeze-Thaw Stability, Accuracy (%)” value ([3]; nominal conc. 1000.00 ng/mL) was 96.7%. The “Short-Term Stability, Accuracy (%)” value ([3]; nominal conc. 1000.00 ng/mL) was 96.0%, the “Long-Term Stability, Accuracy (%)” value ([3]; nominal conc. 1000.00 ng/mL) was 102.1% and the “Freeze-Thaw Stability, Accuracy (%)” value ([3]; nominal conc. 5000.00 ng/mL) was 98.9%. The “Short-Term Stability, Accuracy (%)” value ([3]; nominal conc. 5000.00 ng/mL) was 102.4%, the “Long-Term Stability, Accuracy (%)” value ([3]; nominal conc. 5000.00 ng/mL) was 100.3% and the “stability in plasma under three conditions” value [3, 13] was 93.4%–102.4. It also gave an AUC (in vivo [4]) of 16400 ± 450 ng·h/mL, a Cmax (in vivo [4]) of 4000 ± 440 ng/mL and a Tmax (in vivo [4]) of 4.8 min. The half-life (in vivo [4]) was 511 ± 19.2 min, the bioavailability ([5]; male, Wistar, rat, in vivo) was 59% and the AUC ([5]; male, Wistar, rat, in vivo, po) was 9270 ± 390 ng·h/mL. For the same molecule, the Cmax ([5]; male, Wistar, rat, in vivo, po) was 910 ± 20 ng/mL, the half-life ([5]; male, Wistar, rat, in vivo, po, T1/2, rat) was 419 min and the Tmax ([5]; male, Wistar, rat, in vivo, po, Tmax) was ≤ 3 h. For the same molecule, the “time at which detected in rat plasma after oral administration” value ([5]; oral) was 1 h, the T1/2 ([5]; rat, oral) was 6.9 ± 0.32 h and the “max value of the concentration in the plasma” value ([5]; rat, oral) was 910 ng/mL. The “Short-Term Stability, Accuracy (%)” value ([6]; nominal conc. 100.00 ng/mL) was 90.8%, the “Long-Term Stability, Accuracy (%)” value ([6]; nominal conc. 100.00 ng/mL) was 89.2% and the “Freeze-Thaw Stability, Accuracy (%)” value [6, 12] was 91.6%. For the same molecule, the “Freeze-Thaw Stability, Accuracy (%)” value ([6]; nominal conc. 1000.00 ng/mL) was 91.9%, the “Short-Term Stability, Accuracy (%)” value ([6]; nominal conc. 1000.00 ng/mL) was 91.3% and the “Long-Term Stability, Accuracy (%)” value ([6]; nominal conc. 1000.00 ng/mL) was 92.6%. The “Freeze-Thaw Stability, Accuracy (%)” value ([6]; nominal conc. 5000.00 ng/mL) was 93.5%, the “Short-Term Stability, Accuracy (%)” value ([6]; nominal conc. 5000.00 ng/mL) was 94.4% and the “Long-Term Stability, Accuracy (%)” value ([6]; nominal conc. 5000.00 ng/mL) was 91.1%. For the same molecule, the “stability in perfusate under three conditions” value [6, 13] was 88.2%–94.8, the “AP Chamber (%) recovered” value (Caco-2 cell monolayer [7]; time 60 min) was 82.14 ± 2.85% and the “BL Chamber (%) recovered” value (Caco-2 cell monolayer [7]; time 60 min) was 1.04 ± 0.12%. For the same molecule, the “Cell Fraction (%) recovered” value (Caco-2 cell monolayer [7]; time 60 min) was 14.22 ± 1.14%, the “AP Chamber (%) recovered” value (Caco-2 cell monolayer [7]; time 90 min) was 81.63 ± 2.04% and the “BL Chamber (%) recovered” value (Caco-2 cell monolayer [7]; time 90 min) was 1.51 ± 0.11%. The “Cell Fraction (%) recovered” value (Caco-2 cell monolayer [7]; time 90 min) was 15.05 ± 1.29%, the “AP Chamber (%) recovered” value (Caco-2 cell monolayer [7]; time 120 min) was 80.25 ± 2.67% and the “BL Chamber (%) recovered” value (Caco-2 cell monolayer [7]; time 120 min) was 1.90 ± 0.20%. For the same molecule, the “Cell Fraction (%) recovered” value (Caco-2 cell monolayer [7]; time 120 min) was 14.43 ± 1.24%, the “AP Chamber (%) recovered” value (Caco-2 cell monolayer [7]; time 150 min) was 79.38 ± 2.21% and the “BL Chamber (%) recovered” value (Caco-2 cell monolayer [7]; time 150 min) was 2.36 ± 0.21%. For the same molecule, the “Cell Fraction (%) recovered” value (Caco-2 cell monolayer [7]; time 150 min) was 14.78 ± 0.92% and the “transport mechanism across Caco-2 monolayer” value (Caco-2 cell monolayer [7]; with and without P-gp inhibitor verapamil 100 μM) was “transported by passive diffusion without the participation of P-gp”.

For `C=C(C)CCCC1(C)OC(=O)C23CC=C4C(CCC5C4(C)CCC(OC4OCC(OC6OC(CO)C(O)C(OC7OC(CO)C(O)C(OC)C7O)C6O)C(O)C4OC4OC(C)C(OC6OCC(O)C(OC7OC(CO)C(O)C(OC)C7O)C6O)C(O)C4O)C5(C)C)C2(C)CC(=O)C13` (stereo not shown) [Holotoxin A1], the Papp A→B (in vitro; Caco-2) was < 0.83 ×10⁻⁶ cm/s, the Papp B→A (in vitro; Caco-2) was < 0.83 ×10⁻⁶ cm/s and the “concentration-dependent changes in permeability” value [1] was “not found”. For the same molecule, the “detection in the plasma after oral administration” value [8] was “not detected”, the “Papp AP-BL” value (Caco-2 cell monolayer [2]) was <0.83 × 10^−6, cm·s^−1 and the “PappAB (Papp AP to BL)” value (Caco-2 cell monolayer [2]) was “less than 0.83 × 10^−6 cm·s^−1”. It also gave an AUC (in vivo [4]) of 6530 ± 150 ng·h/mL, a Cmax (in vivo [4]) of 2870 ± 170 ng/mL and a Tmax (in vivo [4]) of 4.8 min. For the same molecule, the half-life (in vivo [4]) was 264 ± 3.6 min, the “stability in plasma under three conditions” value [9] was 93.4%–102.4 and the Papp (in vivo [10]) was 2.67 ×10⁻⁶ cm/s. For the same molecule, the “change in permeability when verapamil was added to the perfusate” value [11] was “No significant increase”, the “AP Chamber (%) recovered” value (Caco-2 cell monolayer [7]; time 60 min) was 97.66 ± 2.02% and the “AP Chamber (%) recovered” value (Caco-2 cell monolayer [7]; time 90 min) was 96.56 ± 1.89%. The “AP Chamber (%) recovered” value (Caco-2 cell monolayer [7]; time 120 min) was 95.46 ± 1.72%, the “AP Chamber (%) recovered” value (Caco-2 cell monolayer [7]; time 150 min) was 95.90 ± 2.27% and the “BL Chamber (%) recovered” value (Caco-2 cell monolayer [7]; time 150 min) was <0.2%. For the same molecule, the “Cell Fraction (%) recovered” value (Caco-2 cell monolayer [7]; time 150 min) was <0.2%.

`CC(C)NCC(O)COc1cccc2ccccc12` (stereo not shown) [propranolol, reference compound] showed a Papp A→B at 150 min, 20 µM (in vitro; Caco-2) of 26.1 ± 1.2 ×10⁻⁶ cm/s.
